This is an account of results in patent US20080234368A9, “Therapeutic compositions and methods of use” (Trustees of Dartmouth College, priority 1998, published 2008).

Molecules are shown by their SMILES. pIC50: −log10 of the molar value.

In test [1] the test system is SW626 ovarian carcinoma cells. Description: Inhibition of cell proliferation (3H-thymidine incorporation). Type of test: cell-based, human. The note with it: SW626 (Smad4/DPC4 mutation); 3 or 4 days, 3H-thymidine 2 h. On the procedure:
(§1) All cells were obtained from ATCC, except as noted. They were grown under standard conditions in either DMEM, DMEM/F 12, or RPMI 1640 media plus 5-10% FBS. CDDO, over the dose range 10^−6 to 10^−10 M, was added to cultures at the time of seeding. Three or 4 days later, cells were treated with ^3H-thymidine for 2 h (12 h in the case of leukemia cells), and then incorporation was measured. “ER” means estrogen receptor.
(§2) ^aThese cells all have […] mutations (Schutte et al. 1996).

In test [2] the test system is CAPAN-1 pancreatic carcinoma cells. The description is as above. Particulars: CAPAN-1 (Smad4/DPC4 mutation); 3 or 4 days, 3H-thymidine 2 h. Type of test: cell-based, human. As to the method:
as §1, §2

The test system of test [3] is MDA-MB-468 ER negative breast carcinoma cells. The test is described as above. The note with it: MDA-MB-468 (Smad4/DPC4 mutation); 3 or 4 days, 3H-thymidine 2 h. In kind it is cell-based, human. As to the method:
as §1, §2

Test [4] has as its system LCDB acute myelogenous leukemia cell line. The experiment in a line: Monocytic differentiation, α-naphthyl acetate esterase staining. Type of test: cell-based, human. As to the method: CDDO induces monocytic differentiation in the poorly differentiated LCDB acute myelogenous leukemia cell line, derived from a chemotherapy-resistant patient at the NCI Pediatric Oncology Branch. FIG. 11 illustrates LCDB cells seeded in RPMI 1640/2% FBS, either alone (11A), with 2.5 ng/ml TGF-β1 (11B), with 10^−8 M CDDO (11C), or with both TGF-β1 and CDDO (11D). After 48 h, cytospin slide preparations were made and stained for α-naphthyl acetate esterase activity (kit from Sigma). PC12 cells were cultured for 5 days in gridded dishes in DMEM/10% FBS and 5% horse serum (Smith et al., 1997), either alone (11E), with 100 ng/ml 7S NGF (11F), with 10^−6 M CDDO (11G), or with both NGF and CDDO (11H). […] Methods for quantitative image analysis of size of cells and neurites have been described (De 1a Torre et al., 1997). Control cells in FIG. 11E are approximately 10 μm in diameter. 3T3-L1 cells were grown to confluency in DMEM/5% calf serum, and then treated once with CDDO in DMEM/10% FBS (FIG. 12A) or with CDDO and/or LG100268 in DMEM/10% FBS (FIG. 12B). Every two days thereafter, medium was changed to DMEM/10% FBS, without added CDD0 or LG100268. Cells were harvested on day 8 (FIG. 12A) or day 6 (FIG. 12B), and GPDH was measured in lysates, using a standard assay for consumption of NADH at 340 nm (Wise and Green, 1979).

Test [5] deals with NB4 promyelocytic leukemia line. The experiment in a line: Differentiation of leukemia cells (data not shown). Type of test: cell-based, human. The note with it: by itself or in combination with TGF-β1.
For another test, the target named is T1, COX-2 enzymatic activity (Mus musculus, UniProt Q05769).
T1 construct: added to RAW cells in which synthesis of these two enzymes has already been induced; endogenous in cells; host or cells: RAW 264.7 mouse macrophage-like cells, enzyme synthesis pre-induced
T1 sequence (Q05769 18-604): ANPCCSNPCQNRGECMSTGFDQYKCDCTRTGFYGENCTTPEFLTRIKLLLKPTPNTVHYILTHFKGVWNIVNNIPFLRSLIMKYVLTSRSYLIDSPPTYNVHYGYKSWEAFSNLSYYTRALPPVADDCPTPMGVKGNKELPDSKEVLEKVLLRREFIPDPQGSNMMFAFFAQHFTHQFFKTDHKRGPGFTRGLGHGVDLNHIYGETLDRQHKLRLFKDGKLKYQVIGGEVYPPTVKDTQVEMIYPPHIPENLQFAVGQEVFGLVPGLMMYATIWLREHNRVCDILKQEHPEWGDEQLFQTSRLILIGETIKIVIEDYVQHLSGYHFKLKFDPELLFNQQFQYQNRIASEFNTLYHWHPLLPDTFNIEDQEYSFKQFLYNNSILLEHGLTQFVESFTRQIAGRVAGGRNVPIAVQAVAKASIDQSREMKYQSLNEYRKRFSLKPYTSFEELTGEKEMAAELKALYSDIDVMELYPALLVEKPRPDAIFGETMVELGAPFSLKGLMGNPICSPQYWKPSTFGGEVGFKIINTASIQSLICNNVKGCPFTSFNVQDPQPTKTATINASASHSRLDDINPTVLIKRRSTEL
Description: Prostaglandin production in RAW cells with enzyme synthesis already induced. Type of test: cell-based. The note with it: added after enzyme synthesis induced; data not shown. The source says: These effects of CDDO have been seen in primary mouse macrophages, a mouse macrophage-like tumor cell line (RAW 264.7), and in non-neoplastic human colon fibroblasts. […] Neither iNOS nor COX-2 expression can be detected in these cells until they are stimulated by an inflammatory mediator such as IFN-γ, or LPS. […] The above effects on INOS and COX-2 are also reflected in the cumulative production of their respective enzyme products, NO and PGE2, as measured in primary macrophages (FIG. 14C). […] Likewise, the actions of CDDO are not blocked by the glucocorticoid antagonist, RU-486, which is known to bind to the glucocorticoid receptor (data not shown). In these regards, CDDO is identical to the other oleanolic acid derivatives previously studied (Suh et al., 1998).

The next test has as its system COX-2. Description: Western blot for IL-1β-induced COX-2 protein in 18Co colon myofibroblasts. In kind it is cell-based, human. The note with it: 18Co cells, IL-1β 30 pg/ml. As to the method:
FIG. 14(A) illustrates Western blots; primary mouse macrophages; IFN-γ, 10 ng/ml; LPS, 2 ng/ml were added to cultures together with triterpenoids or dexamethasone (concentrations shown as […]); cells were harvested at 12 h. FIG. 14(B) illustrates Northern blots, RAW 264.7 macrophage-like cell line. IFN-γ, 10 ng/ml; LPS, 1 ng/ml; TNF-α, 10 ng/ml, were added to cultures together with CDDO or dexamethasone. RNA prepared after 12 h; GAPDH used as a loading control. FIG. 14(C) illustrates suppression of production of NO and PGEF in primary macrophages. For NO studies, cells were treated with IFN-γ, 10 ng/ml, together with CDDO (M), dexamethasone (O), TP-82 (□), or oleanolic acid (A). After 48 h, supernatants were analyzed for NO by the Griess reaction. For PGEF studies, cells were treated with IFN-γ, 5 ng/ml, and LPS, 5 ng/ml, together with the same set of inhibitors. After 48 h, PGE was measured in supernatants by immunoassay. Control values (no inhibition) for NO and PGE2 were 4.7 nmol/[…] and 2.2 ng/ml/2×10^5 cells, respectively. FIGS. (14D) and (14E) illustrate (human colon myofibroblasts) ^18Co cells grown in MEM/10% FBS; other methods are the same as reported above for macrophages. FIG. 14(D) illustrates Northern blots showing dose-response for suppression of COX-2 mRNA after induction with IL-1β (30 pg/ml). CDDO was added together with IL-1. […]

Test [6] concerns IFN-γ-induced NO production in mouse macrophages. Description: Inhibition of IFN-γ induced NO production in mouse macrophages. Type of test: cell-based. Particulars: read-out: IC50, inhibition of IFN-γ induced NO production. On the procedure:
The inhibitory activities of these compounds and dexamethasone on IFN-γ induced NO production in mouse macrophages is shown below in Table 1. The following procedure for the assay ws used. Macrophages were harvested from female mice injected intraperitoneally four days previously with 4% thioglycollate. These cells were seeded in 96-well tissue culture plates and incubated with 4 ng/mL IFN-γ in the presence or absence of inhibitory test compounds. After 48 hours NO production (measured as nitrite by the Griess reaction) was determined. Full details of the assay are given in Ding et al., 1990; Bogdan et al., 1992.

With `CC1(C)CC[C@]2(C(=O)O)CC[C@]3(C)[C@H](C(=O)C=C4[C@@]5(C)C=C(C#N)C(=O)C(C)(C)[C@@H]5CC[C@]43C)[C@@H]2C1` [Compound 6, 2-cyano-3,12-dioxoolean-1,9-dien-28-oic acid], the pIC50 is 6.52 in test [1], 6.52 in test [2], 6.70 in test [3] and 9.00 in test [6]. In addition, in test [4] (10^−8 M CDDO with 2.5 ng/ml TGF-β1), the “α-naphthyl esterase activity, combination effect” value is given as “additive effect”. Moreover, the “induction of α-naphthyl esterase activity (monocytic differentiation)” value in test [4] (10^−8 M CDDO, within 48 h) was “induced the activity of this enzyme”. In addition, in test [5], the differentiative effects result was “differentiative effects”. In addition, the “immediate effect on prostaglandin production (direct inhibition of COX-2)” value at COX-2 enzymatic activity is reported as “no immediate effect”. The “induction of COX-2 protein” value in the test with COX-2 is given as “blocked induction”.
